In the data set the target is cDNA-expressed human hepatic CYP3A4 (Homo sapiens (Human), UniProt P08684). The experiment in a line: Measurement of CYP (IC50 of P450 CYP3A4), BFC substrate. Particulars: 20 minutes. It is filed as in vitro ADME. As for the experimental part:
The compounds of the present invention had lower P450 CYP3A4 inhibitory activity (higher IC50). Lower CYP3A4 inhibitory activity means that the compounds of the present invention cause fewer side-effects from the pharmacological point of view.
This assay was performed in a 200 l volume in 96-well microtiter plates using cDNA-expressed human hepatic CYP3A4 (supersome, BD Gentest™ #456202). As a substrate for CYP3A4, 7-benzyloxy-4-trifluoromethyl-coumarin (BFC) was used. The compounds of Examples 1 to 5 and the substrate BFC were dissolved in 100% acetonitrile. The final volume of acetonitrile of the incubation mixture was less than 1% (volume/volume). A potassium phosphate buffer (pH 7.4, final concentration 0.1M), MgCl2 (final concentration 8.3 mM), EDTA (final concentration 1.67 mM), an inventive compound stock solution, CYP3A4 supersome, and NADPH (final concentration 0.25 mM) were added to each well. The reaction was initiated by adding the substrate (BFC, final concentration 30 µM) at 37. The incubation was performed for 20 minutes and then the reaction was terminated by the addition of 75 μl of acetonitrile: 0.5 M tris-base=4:1 (volume/volume).
Then, a fluorescent signal was measured using a fluorometer. A BFC metabolite, 7-hydroxy-4-trifluoromethyl-coumarin, was measured using an excitation wavelength of 409 nm and an emission wavelength of 530 nm.

pIC50: −log10 of the molar value.

Sequence of cDNA-expressed human hepatic CYP3A4 (P08684 whole entry): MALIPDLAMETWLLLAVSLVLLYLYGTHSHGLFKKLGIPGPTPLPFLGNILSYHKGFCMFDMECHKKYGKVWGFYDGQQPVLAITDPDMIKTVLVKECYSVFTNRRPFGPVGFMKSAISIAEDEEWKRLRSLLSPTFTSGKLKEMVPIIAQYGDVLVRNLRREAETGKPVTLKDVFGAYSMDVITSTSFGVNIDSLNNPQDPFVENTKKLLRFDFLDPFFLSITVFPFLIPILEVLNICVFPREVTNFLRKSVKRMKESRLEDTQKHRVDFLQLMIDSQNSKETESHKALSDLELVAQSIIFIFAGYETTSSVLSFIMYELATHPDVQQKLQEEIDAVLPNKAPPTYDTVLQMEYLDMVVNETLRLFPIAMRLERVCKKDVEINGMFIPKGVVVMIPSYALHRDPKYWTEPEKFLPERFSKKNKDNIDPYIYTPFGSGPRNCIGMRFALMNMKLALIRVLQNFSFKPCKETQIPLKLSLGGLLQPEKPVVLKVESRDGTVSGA

For the compound `C=CCN1CC(=O)N2[C@@H](Cc3ccc(O)cc3)C(=O)N(Cc3cccc4c(-c5cccc(C(=O)Nc6ccccc6)c5)cn(C)c34)C[C@@H]2N1C(=O)NCc1ccccc1` [Compound D-14], the pIC50 is 5.67.

`C=CCN1CC(=O)N2[C@@H](Cc3ccc(O)cc3)C(=O)N(Cc3cccc4c(-c5ccc(C(=O)Nc6cccc(OCc7ccccc7)c6)cc5)cn(C)c34)C[C@@H]2N1C(=O)NCc1ccccc1` [Compound D-20] had a pIC50 of 4.76. The value for `C=CCN1CC(=O)N2[C@@H](Cc3ccc(O)cc3)C(=O)N(Cc3cccc4c(-c5ccc(C(=O)Nc6ccc(OCCCC)cc6)cc5)cn(C)c34)C[C@@H]2N1C(=O)NCc1ccccc1` [Compound D-23] was under 4.60; that for `C=CCN1CC(=O)N2[C@@H](Cc3ccc(O)cc3)C(=O)N(Cc3cccc4c(-c5cccc(C(=O)Nc6ccc(N7CCN(c8ccc(OC)cc8)CC7)cc6)c5)cn(C)c34)C[C@@H]2N1C(=O)NCc1ccccc1` [Compound D-25] was under 4.60. `C=CCN1CC(=O)N2[C@@H](Cc3ccc(O)cc3)C(=O)N(Cc3cccc4c(-c5ccc(NC(=O)CCCCCCC)cc5)cn(C)c34)C[C@@H]2N1C(=O)NCc1ccccc1` [Compound D-52] showed a negative logarithm of the IC50 (pIC50) of 4.66. The value for `C=CCN1CC(=O)N2[C@@H](Cc3ccc(O)cc3)C(=O)N(Cc3cccc4c(-c5ccc(NC(=O)c6ccc(N(CC)CC)cc6)cc5)cn(C)c34)C[C@@H]2N1C(=O)NCc1ccccc1` [Compound D-57] was under 4.60; that for `C=CCN1CC(=O)N2[C@@H](Cc3ccc(O)cc3)C(=O)N(Cc3cccc4c(-c5ccc(NC(=O)CCCNCCC(C)=O)cc5)cn(C)c34)C[C@@H]2N1C(=O)NCc1ccccc1` [Compound D-72] was 5.56; that for `C=CCN1CC(=O)N2[C@@H](Cc3ccc(O)cc3)C(=O)N(Cc3cccc4c(-c5ccc(NC(=O)NCC(C)(C)C)nc5)cn(C)c34)C[C@@H]2N1C(=O)NCc1ccccc1` [Compound D-96] was 5.66. The figure for `C=CCN1CC(=O)N2[C@@H](Cc3ccc(O)cc3)C(=O)N(Cc3cccc4c(C(=O)N5CCN(CCO)CC5)cn(C)c34)C[C@@H]2N1C(=O)NCc1ccccc1` [Compound E-9] is 5.17.

For `C=CCN1CC(=O)N2[C@@H](Cc3ccc(O)cc3)C(=O)N(Cc3cccc4c(C(=O)N5CCN(CCCO)CC5)cn(C)c34)C[C@@H]2N1C(=O)NCc1ccccc1` [Compound E-11], the pIC50 was 4.95. `C=CCN1CC(=O)N2[C@@H](Cc3ccc(O)cc3)C(=O)N(Cc3cccc4c(C(=O)N5CCN(CCCCO)CC5)cn(C)c34)C[C@@H]2N1C(=O)NCc1ccccc1` [Compound E-12] gave a pIC50 of 5.03. On to `C=CCN1CC(=O)N2[C@@H](Cc3ccc(O)cc3)C(=O)N(Cc3cccc4c(C(=O)N5CCN(C(C)=O)CC5)cn(C)c34)C[C@@H]2N1C(=O)NCc1ccccc1` [Compound E-14], for which the pIC50 is 4.96. The figure for `C=CCN1CC(=O)N2[C@@H](Cc3ccc(O)cc3)C(=O)N(Cc3cccc4c(C(=O)N5CCN(S(C)(=O)=O)CC5)cn(C)c34)C[C@@H]2N1C(=O)NCc1ccccc1` [Compound E-15] is 4.95; for `C=CCN1CC(=O)N2[C@@H](Cc3ccc(O)cc3)C(=O)N(Cc3cccc4c(C(=O)N5CCN(S(=O)(=O)CC)CC5)cn(C)c34)C[C@@H]2N1C(=O)NCc1ccccc1` [Compound E-16] it is 5.55; for `C=CCN1CC(=O)N2[C@@H](Cc3ccc(O)cc3)C(=O)N(Cc3cccc4c(C(=O)N5CCN(CC6CCCC6)CC5)cn(C)c34)C[C@@H]2N1C(=O)NCc1ccccc1` [Compound E-21] it is under 4.60. As to `C=CCN1CC(=O)N2[C@@H](Cc3ccc(O)cc3)C(=O)N(Cc3cccc4c(C(=O)N5CCN(CCN6CCCCC6)CC5)cn(C)c34)C[C@@H]2N1C(=O)NCc1ccccc1` [Compound E-24], the negative logarithm of the IC50 (pIC50) was 5.26. The figure for `C=CCN1CC(=O)N2[C@@H](Cc3ccc(O)cc3)C(=O)N(Cc3cccc4c(C(=O)NN5CCN(c6ccccn6)CC5)cn(C)c34)C[C@@H]2N1C(=O)NCc1ccccc1` [Compound E-38] is 5.61; for `C=CCN1CC(=O)N2[C@@H](Cc3ccc(O)cc3)C(=O)N(Cc3cccc4c(C(=O)N5CCCN(C)CC5)cn(C)c34)C[C@@H]2N1C(=O)NCc1ccccc1` [Compound E-42] it is 5.44; for `C=CCN1CC(=O)N2[C@@H](Cc3ccc(O)cc3)C(=O)N(Cc3cccc4c(C(=O)N5CCN6CCN(C(C)=O)CC6C5)cn(C)c34)C[C@@H]2N1C(=O)NCc1ccccc1` (some centres unmarked) [Compound E-44] it is 4.82.

As for `C=CCN1CC(=O)N2[C@@H](Cc3ccc(O)cc3)C(=O)N(Cc3cccc4c(C(=O)N5CCN6CCN(C=O)CC6C5)cn(C)c34)C[C@@H]2N1C(=O)NCc1ccccc1` (some centres unmarked) [Compound E-48], the negative-log IC50 (pIC50) was 4.92. The figure for `C=CCN1CC(=O)N2[C@@H](Cc3ccc(O)cc3)C(=O)N(Cc3cccc4c(C(=O)N5CCN6CCN(CC)CC6C5)cn(C)c34)C[C@@H]2N1C(=O)NCc1ccccc1` (some centres unmarked) [Compound E-50] is 5.30; for `C=CCN1CC(=O)N2[C@@H](Cc3ccc(O)cc3)C(=O)N(Cc3cccc4c(C(=O)N5CCC(O)CC5)cn(C)c34)C[C@@H]2N1C(=O)NCc1ccccc1` [Compound E-51] it is 4.97. The figure for `C=CCN1CC(=O)N2[C@@H](Cc3ccc(O)cc3)C(=O)N(Cc3cccc4c(C(=O)N5CCC(C(=O)N(C)CCN(C)C)CC5)cn(C)c34)C[C@@H]2N1C(=O)NCc1ccccc1` [Compound E-54] is 5.30. `C=CCN1CC(=O)N2[C@@H](Cc3ccc(O)cc3)C(=O)N(Cc3cccc4c(C(=O)N5CCC(NC(=O)CCO)CC5)cn(C)c34)C[C@@H]2N1C(=O)NCc1ccccc1` [Compound E-57] had a pIC50 of 5.12. Compound `C=CCN1CC(=O)N2[C@@H](Cc3ccc(O)cc3)C(=O)N(Cc3cccc4c(C(=O)N5CCC(NC(=O)c6ccc(N7CCN(C)CC7)cc6)CC5)cn(C)c34)C[C@@H]2N1C(=O)NCc1ccccc1` [Compound E-60] gave a pIC50 of 5.22. This pIC50 and that of the compound before are within 0.2 log units of each other. For `C=CCN1CC(=O)N2[C@@H](Cc3ccc(O)cc3)C(=O)N(Cc3cccc4c(C(=O)N5CCC(N(C)C)CC5)cn(C)c34)C[C@@H]2N1C(=O)NCc1ccccc1` [Compound E-61], the pIC50 is 5.65.

`C=CCN1CC(=O)N2[C@@H](Cc3ccc(O)cc3)C(=O)N(Cc3cccc4c(C(=O)N5CCN(C6CCN(C)CC6)CC5)cn(C)c34)C[C@@H]2N1C(=O)NCc1ccccc1` [Compound E-64] had a pIC50 of 5.07. Compared with the last compound, the pIC50 is 0.58 log units lower. The value for `C=CCN1CC(=O)N2[C@@H](Cc3ccc(O)cc3)C(=O)N(Cc3cccc4c(C(=O)N5CC6CCN(C)C6C5)cn(C)c34)C[C@@H]2N1C(=O)NCc1ccccc1` (some centres unmarked) [Compound E-68] was 5.61; that for `C=CCN1CC(=O)N2[C@@H](Cc3ccc(O)cc3)C(=O)N(Cc3cccc4c(C(=O)N5CCC6CN(C)CC65)cn(C)c34)C[C@@H]2N1C(=O)NCc1ccccc1` (some centres unmarked) [Compound E-69] was 5.35; that for `C=CCN1CC(=O)N2[C@@H](Cc3ccc(O)cc3)C(=O)N(Cc3cccc4c(C(=O)N5CC(O)C5)cn(C)c34)C[C@@H]2N1C(=O)NCc1ccccc1` [Compound E-70] was 4.74. The figure for `C=CCN1CC(=O)N2[C@@H](Cc3ccc(O)cc3)C(=O)N(Cc3cccc4c(C(=O)N5CC(N6CCOCC6)C5)cn(C)c34)C[C@@H]2N1C(=O)NCc1ccccc1` [Compound E-72] is 5.22. Consider `C=CCN1CC(=O)N2[C@@H](Cc3ccc(O)cc3)C(=O)N(Cc3cccc4c(C(=O)N(C)C)cn(C)c34)C[C@@H]2N1C(=O)NCc1ccccc1` [Compound F-1], for which the pIC50 is 5.50. The value for `C=CCN1CC(=O)N2[C@@H](Cc3ccc(O)cc3)C(=O)N(Cc3cccc4c(C(=O)NCCCO)cn(C)c34)C[C@@H]2N1C(=O)NCc1ccccc1` [Compound F-4] was 4.79; that for `C=CCN1CC(=O)N2[C@@H](Cc3ccc(O)cc3)C(=O)N(Cc3cccc4c(C(=O)NCCOCCO)cn(C)c34)C[C@@H]2N1C(=O)NCc1ccccc1` [Compound F-7] was 4.79; that for `C=CCN1CC(=O)N2[C@@H](Cc3ccc(O)cc3)C(=O)N(Cc3cccc4c(C(=O)NCCN(C)C)cn(C)c34)C[C@@H]2N1C(=O)NCc1ccccc1` [Compound F-13] was 5.10. `C=CCN1CC(=O)N2[C@@H](Cc3ccc(O)cc3)C(=O)N(Cc3cccc4c(C(=O)NCCN(CC)CC)cn(C)c34)C[C@@H]2N1C(=O)NCc1ccccc1` [Compound F-14] gave a pIC50 of 5.44. This pIC50 is 0.34 log units higher than that of the compound before.

`C=CCN1CC(=O)N2[C@@H](Cc3ccc(O)cc3)C(=O)N(Cc3cccc4c(C(=O)NCCCN(C)C)cn(C)c34)C[C@@H]2N1C(=O)NCc1ccccc1` [Compound F-18] had a pIC50 of 4.75. For the compound `C=CCN1CC(=O)N2[C@@H](Cc3ccc(O)cc3)C(=O)N(Cc3cccc4c(C(=O)N(CCO)CCNCCO)cn(C)c34)C[C@@H]2N1C(=O)NCc1ccccc1` [Compound F-20], the pIC50 is 5.54. The figure for `C=CCN1CC(=O)N2[C@@H](Cc3ccc(O)cc3)C(=O)N(Cc3cccc4c(C(=O)N[C@H](C)C(=O)OC)cn(C)c34)C[C@@H]2N1C(=O)NCc1ccccc1` [Compound F-21] is 4.96. The value for `C=CCN1CC(=O)N2[C@@H](Cc3ccc(O)cc3)C(=O)N(Cc3cccc4c(C(=O)NCCC(=O)OCC)cn(C)c34)C[C@@H]2N1C(=O)NCc1ccccc1` [Compound F-22] was 5.45. `C=CCN1CC(=O)N2[C@@H](Cc3ccc(O)cc3)C(=O)N(Cc3cccc4c(C(=O)NCCCC(=O)OC)cn(C)c34)C[C@@H]2N1C(=O)NCc1ccccc1` [Compound F-23] had a negative logarithm of the IC50 (pIC50) of 5.46.
